In patent US12686678B2, “Crystal form of Lanifibranor, preparation method therefor, and use thereof” (INVENTIVA, priority 2020, dated 2026):

Key:
Type in all cases: physicochemical
[1] = Hygroscopicity by dynamic vapor sorption (DVS); settings: for Weight gain from 0 to 60% RH / Weight gain from 0 to 70% RH: DVS, 25° C.; for Crystalline state after DVS: XRPD before and after DVS test
Method: Dynamic Vapor Sorption (DVS) was measured via an SMS (Surface Measurement Systems Ltd.) intrinsic DVS instrument. The instrument control software is DVS-Intrinsic control software. Typical Parameters for DVS test are as follows: • Temperature: 25° C. • Gas and flow rate: N2, 200 mL/min • RH range: 0% RH to 95% RH Dynamic vapor sorption (DVS) analyzer was applied to evaluate the hygroscopicity of amorphous with a certain amount of sample. The weight gains at each relative humidity were recorded in a cycle of 0-95% RH-0. […] Dynamic vapor sorption (DVS) analyzer was applied to evaluate hygroscopicity of Form CSI with a certain amount of sample. The weight gains at each relative humidity were recorded in a cycle of 0-95% RH-0. Dynamic vapor sorption (DVS) analyzer was applied to evaluate hygroscopicity of Form CSII with a certain amount of sample. The weight gains at each relative humidity were recorded in a cycle of 50% RH-95% RH-0%-95% RH. Dynamic vapor sorption (DVS) analyzer was applied to evaluate hygroscopicity of Form CSIV and prior art amorphous with certain amounts of samples. The weight gains at each relative humidity were recorded in a cycle of 0-95% RH-0.

[2] = Particle size distribution (Mastersizer 3000, wet mode); settings: after 30 seconds of ultrasonication, Isopar G
Method: The particle size distribution data in the present disclosure were acquired by an Mastersizer 3000 laser particle size analyzer of Malvern. The test was carried out in wet mode, using a Hydro MV dispersion device, and the dispersant was Isopar G. The parameters are shown in Table 3. A certain amount of Form CSI was added into a glass vial with about a certain volume of Isopar G (containing 0.2% lecithin). The mixture was mixed thoroughly and transferred into the Hydro MV dispersing device. The experiment was started when the obscuration was in appropriate range. The particle size distribution was tested after 30 seconds of ultrasonication.

[3] = Flowability (compressibility index from bulk and tapped density)
Method: Compressibility index is usually utilized to evaluate the flowability of powder or granules during the drug product process. Compressibility index test method is as follows: a certain amount of powder was added into a measuring cylinder and bulk volume was recorded. Then the powder was tapped to make it in the tightest state and the tapped volume was recorded. The bulk density (ρ0) and tapped density (ρf) were calculated and compressibility index was calculated according to c=(ρf−ρ0)/ρf.

[4] = Adhesiveness (material sticking to punch, ENERPAC manual tablet press); settings: about 30 mg, φ8 mm round tooling, 10 kN, held 30 s
Method: ENERPAC manual tablet press was used for testing. Approximately 30 mg of Form CSI was weighed and then added into the dies of φ8 mm round tooling, compressed at 10 kN and held for 30 s. The punch was weighed and the amount of material sticking to the punch was calculated. The compression was repeated twice and the maximum amount and average amount of material sticking to the punch during the compression were recorded. […] ENERPAC manual tablet press was used for testing. Approximately 30 mg of Form CSII was weighed and then added into the dies of φ8 mm round tooling, compressed at 10 kN and held for 30 s. The punch was weighed and amount of material sticking to the punch was calculated. The compression was repeated twice and the maximum amount and average amount of material sticking to the punch during the compression were recorded. […] ENERPAC manual tablet press was used for testing. Approximately 30 mg of Form CSIV was weighed and then added into the dies of φ8 mm round tooling, compressed at 10 KN and held for 30 s. The punch was weighed and amount of material sticking to the punch was calculated. The compression was repeated twice and the maximum amount and average amount of material sticking to the punch during the compression were recorded.

[5] = Appearance of powder on sulphuric acid paper
Excerpt: A certain amount of Form CSI was weighed and put on sulphuric acid paper to observe the appearance The appearance of Form CSI is shown in FIG. 15. […] A certain amount of Form CSII was weighed and put in sulphuric acid paper, and the powder state was observed. […] A certain amount of Form CSIV was weighed and put in sulphuric acid paper, and the powder state was observed.

[6] = Physical and chemical stability on storage (XRPD for crystalline form, HPLC for purity)
Method: A certain amount of Form CSI of the present disclosure was stored under different conditions of 25° C./60% RH, 40° C./75% RH, and 60° C./75% RH. Crystalline form and chemical purity were checked by XRPD and HPLC, respectively. Open packaged: Put the sample into a glass vial, cover the vial with aluminum toil, and punch 5-10 holes in the foil. Sealed packaged: Put the sample into a glass vial, cap the vial tightly, and seal the vial in an aluminum foil bag. A certain amount of Form CSII of the present disclosure was stored under different conditions of 25° C./60% RH, 40° C./75% RH, and 60° C./75% RH. Crystalline form and chemical purity were checked by XRPD and HPLC, respectively. A certain amount of Form CSIV of the present disclosure was stored under different conditions of 25° C./60% RH, 40° C./75% RH, and 60° C./75% RH. Crystalline form and chemical purity were checked by XRPD and HPLC, respectively.

[7] = Physical stability upon manual grinding (XRPD); settings: ground manually for 5 minutes in a mortar
Method: Form CSII was grounded manually for 5 minutes in a mortar. […] Form CSIV was grounded manually for 5 minutes in a mortar.

[8] = Physical stability upon tableting under different pressures (XRPD)
Excerpt: A certain amount of Form CSII was compressed into tablet under different pressures with suitable tableting die. Crystalline form before and after tableting were checked by XRPD. […] A certain amount of Form CSIV was compressed into tablet under different pressures with suitable tableting die. Crystalline form before and after tableting were checked by XRPD.

[9] = 25° C./60% RH, open packaged, 6 months
[10] = 25° C./60% RH, sealed packaged, 6 months
[11] = 40° C./75% RH, open packaged, 6 months
[12] = 40° C./75% RH, sealed packaged, 6 months
[13] = 60° C./75% RH, open packaged, 3 months
[14] = 60° C./75% RH, sealed packaged, 3 months
[15] = 25° C./60% RH, open packaged, 3 months
[16] = 25° C./60% RH, sealed packaged, 3 months
[17] = 40° C./75% RH, open packaged, 3 months
[18] = 40° C./75% RH, sealed packaged, 3 months
[19] = 60° C./75% RH, open packaged, one month
[20] = 60° C./75% RH, sealed packaged, one month

Weight gain from 0 to 60% RH ([1]; 0 to 60% RH)	Weight gain from 0 to 70% RH ([1]; 0 to 70% RH)	Average adhesion amount [4]	Time for which the form is stable (crystalline state doesn't change) ([6]; 25° C./60% RH)	Time for which the form is stable (crystalline state doesn't change) ([6]; 40° C./75% RH)	Time for which the form is stable (crystalline state doesn't change) ([6]; 60° C./75% RH)	Crystalline state after DVS [1]	Crystalline state after grinding [7]	Form after storage [6, 15]	Purity change [6, 15]	Form after storage [6, 16]	Purity change [6, 16]	Form after storage [6, 17]	Purity change [6, 17]	Form after storage [6, 18]	Purity change [6, 18]	Form after storage [6, 19]	Purity change [6, 19]	Solid form after tableting ([8]; Pressure 5 kN)	Structure (SMILES)	Appearance of powder [5]	other results
0.94%	1.18%	–	–	–	–	–	–	–	–	–	–	–	–	–	–	–	–	–	O=C(O)CCCc1cc2cc(Cl)ccc2n1S(=O)(=O)c1ccc2ncsc2c1 [amorphous, 5-Chloro-1-[(6-benzothiazolyl)sulfonyl]-1H-indole-2-butanoic acid, reference compound]	–	Weight gain of amorphous relative to that of Form CSI ([1]; 0 to 60% RH): about 6 times; Weight gain of amorphous relative to that of Form CSII ([1]; 0 to 60% RH): about 4 times; Weight gain of amorphous relative to that of Form CSIV ([1]; 0 to 60% RH and 0 to 70% RH): about 4 times; Weight gain of amorphous relative to that of Form CSI ([1]; 0 to 70% RH): ~7 times; Weight gain of amorphous relative to that of Form CSII ([1]; 0 to 70% RH): ~5 times; Weight gain from 0 to 60% RH ([1]; 0 to 60% RH, listed as prior art amorphous): 0.94%; Weight gain from 0 to 70% RH ([1]; 0 to 70% RH, listed as prior art amorphous): 1.18%
0.17%	0.17%	0.45 mg	at least 6 months	at least 6 months	at least 3 months	remains unchanged	–	–	–	–	–	–	–	–	–	–	–	–	O=C(O)CCCc1cc2cc(Cl)ccc2n1S(=O)(=O)c1ccc2ncsc2c1 [Form CSI, 5-Chloro-1-[(6-benzothiazolyl)sulfonyl]-1H-indole-2-butanoic acid]	powdery with uniformly dispersed and has no adhesion phenomenon	D10 [2]: 0.725 μm; D50 [2]: 1.89 μm; D90 [2]: 7.15 μm; MV [2]: 4.54 μm; Bulk density [3]: 0.405 g/mL; Tapped density [3]: 0.526 g/mL; Flowability ([3]; class by compressibility index, ICH Q4B Annex 13): Passable (21-25); Form after storage [6, 9]: Form CSI; Purity change [6, 9]: 0.02%; Form after storage [6, 10]: Form CSI; Purity change [6, 10]: 0.03%; Form after storage [6, 11]: Form CSI; Purity change [6, 11]: 0.05%; Form after storage [6, 12]: Form CSI; Purity change [6, 12]: 0.01%; Form after storage [6, 13]: Form CSI; Purity change [6, 13]: 0.08%; Form after storage [6, 14]: Form CSI; Purity change [6, 14]: 0.07%
0.23%	0.27%	0.05 mg	at least 3 months	at least 3 months	at least one month	remains unchanged	remains unchanged	Form CSIV	0.02%	Form CSIV	0.04%	Form CSIV	0.00%	Form CSIV	0.03%	Form CSIV	0.04%	Form CSIV	O=C(O)CCCc1cc2cc(Cl)ccc2n1S(=O)(=O)c1ccc2ncsc2c1 [Form CSIV, 5-Chloro-1-[(6-benzothiazolyl)sulfonyl]-1H-indole-2-butanoic acid]	powdery with uniformly dispersed and has no adhesion phenomenon	Form after storage [6, 20]: Form CSIV; Purity change [6, 20]: 0.06%; Solid form after tableting ([8]; Pressure 10 kN): Form CSIV; Solid form after tableting ([8]; Pressure 20 kN): Form CSIV
0.21%	0.27%	0.20 mg	at least 3 months	at least 3 months	at least one month	remains unchanged	remains unchanged	Form CSII	0.09%	Form CSII	0.06%	Form CSII	0.07%	Form CSII	0.01%	Form CSII	0.05%	Form CSII	O=C(O)CCCc1cc2cc(Cl)ccc2n1S(=O)(=O)c1ccc2ncsc2c1 [Form CSII, 5-Chloro-1-[(6-benzothiazolyl)sulfonyl]-1H-indole-2-butanoic acid]	powdery with uniformly dispersed and has no adhesion phenomenon	Solid form after tableting ([8]; Pressure 10 kN): Form CSII; Solid form after tableting ([8]; Pressure 20 kN): Form CSII
